From ChEMBL document CHEMBL3885881, “DrugMatrix”

Organism: Rattus norvegicus
Assay: DrugMatrix - Regimen: Daily Repeat
Type: toxicity, organism-based, Sprague-Dawley
Set-up: regimen Daily Repeat, gender Male, age 6-8 weeks
Conditions: in vivo, po, route oral GAVAGE, vehicle 100 % WATER; for ABSOLUTE BASOPHIL / ABSOLUTE EOSINOPHIL / ABSOLUTE LYMPHOCYTE / ABSOLUTE MONOCYTE / ABSOLUTE SEGMENTED NEUTROPHIL / BASOPHIL / EOSINOPHIL / ERYTHROCYTE COUNT / HEMATOCRIT / HEMOGLOBIN / LEUKOCYTE COUNT / LYMPHOCYTE / MEAN CORPUSCULAR HEMOGLOBIN / MEAN CORPUSCULAR HEMOGLOBIN CONCENTRATION / MEAN CORPUSCULAR VOLUME / MONOCYTE / NEUTROPHIL / NUCLEATED RED BLOOD CELLS / PLATELET COUNT: tissue Blood; for ALANINE AMINOTRANSFERASE / ALBUMIN / ALKALINE PHOSPHATASE / ASPARTATE AMINOTRANSFERASE / BLOOD UREA NITROGEN / CARBON DIOXIDE / CHLORIDE / CHOLESTEROL / CREATINE PHOSPHOKINASE / CREATININE / GLUCOSE / LACTATE DEHYDROGENASE / LIPASE / PHOSPHORUS / POTASSIUM / SODIUM / TOTAL BILIRUBIN / TOTAL PROTEIN / URIC ACID: tissue Plasma
[1] = 0 mg/kg, 72 h, dose level Control, time 3 day
[2] = 0 mg/kg, 120 h, dose level Control, time 5 day
[3] = 0.07 mg/kg, 72 h, dose level Low, time 3 day

`Cc1cc(C(C)(C)C)c(O)c(C)c1CC1=NCCN1` [OXYMETAZOLINE] was tested, and the “ABSOLUTE BASOPHIL” value [1] was 0 CELLS/uL, the “ABSOLUTE EOSINOPHIL” value [1] was 123.17 CELLS/uL and the “ABSOLUTE LYMPHOCYTE” value [1] was 12677.83 CELLS/uL. For the same compound, the “ABSOLUTE MONOCYTE” value [1] was 66.17 CELLS/uL, the “ABSOLUTE SEGMENTED NEUTROPHIL” value [1] was 1149.5 CELLS/uL and the BASOPHIL [1] was 0%. For the same compound, the EOSINOPHIL [1] was 0.83%, the “ERYTHROCYTE COUNT” value [1] was 5.26 x10E6/uL and the HEMATOCRIT [1] was 33.07%. The HEMOGLOBIN [1] was 13.43 G/DL, the “LEUKOCYTE COUNT” value [1] was 14.02 x10E3/uL and the LYMPHOCYTE [1] was 90.17%. The “MEAN CORPUSCULAR HEMOGLOBIN” value [1] was 25.62 pg, the “MEAN CORPUSCULAR HEMOGLOBIN CONCENTRATION” value [1] was 40.65 G/DL and the “MEAN CORPUSCULAR VOLUME” value [1] was 63 fL. The MONOCYTE [1] was 0.5%, the NEUTROPHIL [1] was 8.5% and the “NUCLEATED RED BLOOD CELLS” value [1] was 0.17 /100WBC. The “PLATELET COUNT” value [1] was 1142.83 x10E3/uL, the “ALANINE AMINOTRANSFERASE” value [1] was 45.17 u/L and the ALBUMIN [1] was 3.78 G/DL. For the same compound, the “ALKALINE PHOSPHATASE” value [1] was 340.17 u/L, the “ASPARTATE AMINOTRANSFERASE” value [1] was 77.33 u/L and the “BLOOD UREA NITROGEN” value [1] was 14.67 mg/dL. The “CARBON DIOXIDE” value [1] was 28.67 mmol/L, the CHLORIDE [1] was 101.17 MEQ/L and the CHOLESTEROL [1] was 77.67 mg/dL. For the same compound, the “CREATINE PHOSPHOKINASE” value [1] was 263.67 u/L, the CREATININE [1] was 0.15 mg/dL and the GLUCOSE [1] was 169.33 mg/dL. The “LACTATE DEHYDROGENASE” value [1] was 230 u/L, the LIPASE [1] was 9.67 u/L and the PHOSPHORUS [1] was 11.8 mg/dL. For the same compound, the POTASSIUM [1] was 5.91 MEQ/L, the SODIUM [1] was 142.88 MEQ/L and the “TOTAL BILIRUBIN” value [1] was 0.22 mg/dL. For the same compound, the “TOTAL PROTEIN” value [1] was 5.7 G/DL, the “URIC ACID” value [1] was 1.35 mg/dL and the “ABSOLUTE BASOPHIL” value [2] was 0 CELLS/uL. For the same compound, the “ABSOLUTE EOSINOPHIL” value [2] was 125 CELLS/uL, the “ABSOLUTE LYMPHOCYTE” value [2] was 13809 CELLS/uL and the “ABSOLUTE MONOCYTE” value [2] was 351 CELLS/uL. The “ABSOLUTE SEGMENTED NEUTROPHIL” value [2] was 1581.67 CELLS/uL, the BASOPHIL [2] was 0% and the EOSINOPHIL [2] was 0.67%. For the same compound, the “ERYTHROCYTE COUNT” value [2] was 5.53 x10E6/uL, the HEMATOCRIT [2] was 34.83% and the HEMOGLOBIN [2] was 13.9 G/DL. The “LEUKOCYTE COUNT” value [2] was 15.87 x10E3/uL, the LYMPHOCYTE [2] was 87.5% and the “MEAN CORPUSCULAR HEMOGLOBIN” value [2] was 25.25 pg. The “MEAN CORPUSCULAR HEMOGLOBIN CONCENTRATION” value [2] was 40.08 G/DL, the “MEAN CORPUSCULAR VOLUME” value [2] was 63.05 fL and the MONOCYTE [2] was 2.17%. For the same compound, the NEUTROPHIL [2] was 9.67%, the “NUCLEATED RED BLOOD CELLS” value [2] was 0 /100WBC and the “PLATELET COUNT” value [2] was 1044 x10E3/uL. For the same compound, the “ALANINE AMINOTRANSFERASE” value [2] was 50.67 u/L, the ALBUMIN [2] was 4.33 G/DL and the “ALKALINE PHOSPHATASE” value [2] was 395 u/L. For the same compound, the “ASPARTATE AMINOTRANSFERASE” value [2] was 86 u/L, the “BLOOD UREA NITROGEN” value [2] was 15.33 mg/dL and the “CARBON DIOXIDE” value [2] was 29.33 mmol/L. The CHLORIDE [2] was 101.5 MEQ/L, the CHOLESTEROL [2] was 71.33 mg/dL and the “CREATINE PHOSPHOKINASE” value [2] was 323.17 u/L. The CREATININE [2] was 0.18 mg/dL, the GLUCOSE [2] was 145.67 mg/dL and the “LACTATE DEHYDROGENASE” value [2] was 389.5 u/L. For the same compound, the LIPASE [2] was 9.83 u/L, the PHOSPHORUS [2] was 11.35 mg/dL and the POTASSIUM [2] was 6.39 MEQ/L. For the same compound, the SODIUM [2] was 142.77 MEQ/L, the “TOTAL BILIRUBIN” value [2] was 0.18 mg/dL and the “TOTAL PROTEIN” value [2] was 6.1 G/DL. For the same compound, the “URIC ACID” value [2] was 1.52 mg/dL, the “ABSOLUTE BASOPHIL” value [3] was 0 CELLS/uL and the “ABSOLUTE EOSINOPHIL” value [3] was 62.33 CELLS/uL. For the same compound, the “ABSOLUTE LYMPHOCYTE” value [3] was 13944.33 CELLS/uL, the “ABSOLUTE MONOCYTE” value [3] was 0 CELLS/uL and the “ABSOLUTE SEGMENTED NEUTROPHIL” value [3] was 1260 CELLS/uL. The BASOPHIL [3] was 0%, the EOSINOPHIL [3] was 0.33% and the “ERYTHROCYTE COUNT” value [3] was 5.43 x10E6/uL. For the same compound, the HEMATOCRIT [3] was 34.37%, the HEMOGLOBIN [3] was 13.87 G/DL and the “LEUKOCYTE COUNT” value [3] was 15.27 x10E3/uL. For the same compound, the LYMPHOCYTE [3] was 91.67%, the “MEAN CORPUSCULAR HEMOGLOBIN” value [3] was 25.53 pg and the “MEAN CORPUSCULAR HEMOGLOBIN CONCENTRATION” value [3] was 40.33 G/DL. The “MEAN CORPUSCULAR VOLUME” value [3] was 63.33 fL, the MONOCYTE [3] was 0% and the NEUTROPHIL [3] was 8%. For the same compound, the “NUCLEATED RED BLOOD CELLS” value [3] was 0.33 /100WBC, the “PLATELET COUNT” value [3] was 1341.33 x10E3/uL and the “ALANINE AMINOTRANSFERASE” value [3] was 49.33 u/L. For the same compound, the ALBUMIN [3] was 3.83 G/DL, the “ALKALINE PHOSPHATASE” value [3] was 309.33 u/L and the “ASPARTATE AMINOTRANSFERASE” value [3] was 74 u/L. For the same compound, the “BLOOD UREA NITROGEN” value [3] was 12.33 mg/dL, the “CARBON DIOXIDE” value [3] was 33.33 mmol/L and the CHLORIDE [3] was 100.33 MEQ/L. For the same compound, the CHOLESTEROL [3] was 68.67 mg/dL, the “CREATINE PHOSPHOKINASE” value [3] was 205.67 u/L and the CREATININE [3] was 0.12 mg/dL. For the same compound, the GLUCOSE [3] was 144.67 mg/dL, the “LACTATE DEHYDROGENASE” value [3] was 166.67 u/L and the LIPASE [3] was 10 u/L. It also gave a PHOSPHORUS [3] of 10.43 mg/dL, a POTASSIUM [3] of 6.84 MEQ/L and an SODIUM [3] of 142.8 MEQ/L. The “TOTAL BILIRUBIN” value [3] was 0.2 mg/dL, the “TOTAL PROTEIN” value [3] was 5.67 G/DL and the “URIC ACID” value [3] was 1.37 mg/dL.
